The record followed here is patent US20100311965A1, “2-AMINOQUINAZOLINE DERIVATIVE” (CARNA BIOSCIENCES INC., priority 2007, published 2010).

Bounds are passed on as bounds.

One experiment deals with T1, Flt3 kinase (Homo sapiens, UniProt P36888).
T1 construct: purchased Carna Biosciences Inc. (Kobe) 08-154
T1 sequence (P36888 27-993): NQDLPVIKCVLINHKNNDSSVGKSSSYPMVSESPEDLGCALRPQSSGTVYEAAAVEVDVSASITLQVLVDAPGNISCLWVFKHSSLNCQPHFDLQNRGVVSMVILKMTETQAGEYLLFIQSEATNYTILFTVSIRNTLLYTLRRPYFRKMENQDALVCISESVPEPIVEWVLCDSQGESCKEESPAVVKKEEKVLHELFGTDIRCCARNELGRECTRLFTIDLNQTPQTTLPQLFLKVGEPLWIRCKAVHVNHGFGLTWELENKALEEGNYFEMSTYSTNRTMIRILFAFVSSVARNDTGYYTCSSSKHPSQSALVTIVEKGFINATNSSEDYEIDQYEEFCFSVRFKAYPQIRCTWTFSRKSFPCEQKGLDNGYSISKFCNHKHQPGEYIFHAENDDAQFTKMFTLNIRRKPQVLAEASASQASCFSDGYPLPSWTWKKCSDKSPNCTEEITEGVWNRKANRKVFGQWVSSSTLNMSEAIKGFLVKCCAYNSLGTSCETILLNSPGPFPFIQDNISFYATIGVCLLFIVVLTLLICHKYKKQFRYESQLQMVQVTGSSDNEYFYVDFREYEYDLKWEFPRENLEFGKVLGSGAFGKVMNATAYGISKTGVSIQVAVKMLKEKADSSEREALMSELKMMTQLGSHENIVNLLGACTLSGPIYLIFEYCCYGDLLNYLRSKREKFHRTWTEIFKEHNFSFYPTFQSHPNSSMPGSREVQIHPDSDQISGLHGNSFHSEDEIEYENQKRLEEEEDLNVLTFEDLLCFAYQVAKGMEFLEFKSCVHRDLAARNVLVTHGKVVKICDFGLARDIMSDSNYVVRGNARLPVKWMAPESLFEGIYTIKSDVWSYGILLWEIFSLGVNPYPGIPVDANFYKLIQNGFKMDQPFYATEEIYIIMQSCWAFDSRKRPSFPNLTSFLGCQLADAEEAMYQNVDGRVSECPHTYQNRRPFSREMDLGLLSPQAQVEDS
The experiment can be described thus: Kinase activity, mobility shift assay (MSA), Flt3. The class given is biochemical. Particulars: at 0.01 μM; read-out: inhibitory activity against Flt3 kinase. Here is the method: (§1) A test compound was dissolved in DMSO to obtain a 10 mM test compound solution, which was stored in a dark place at −20° C. until measurement. When bioactivity (kinase activity) is measured, a test compound solution is diluted with DMSO so that the concentration becomes 100 times higher than […], and then diluted 25 times (DMSO concentration is 4%) with an assay buffer described hereinafter.
(§2) Products manufactured by Carna Biosciences Inc. (Kobe) used as protein kinases (recombinant human kinases) in the test are as follows:
(§3) SYK (product number: 08-176), JAK3 (product number: 08-046), FLT3 (product number: 08-154), PDGFRα (PDGFRA) (product number: 08-157), TRKA (NTRK1) (product number: 08-186), KDR (product number: 08-191), CDK2/cycA (product number: 04-103), and AurA (AURKA) (product number: 05-101).
(§4) Kinase activity was measured by a mobility shift assay (MSA) method using QuickScout Screening Assist™ MSA (commercially available kit, manufactured by Carna Biosciences Inc.)
(§5) 5 μl of a test compound solution (the concentration is 4 times of the final concentration) dissolved or suspended in an assay buffer [20 mM HEPES, 0.01% Triton™ X-100, 1 mM dithiothreitol, pH 7.5] or 5 μl of a solvent (4% DMSO-assay buffer) was charged in a 384 well plate made of polypropylene (product number 781280, manufactured by Greiner Bio-One Co., Ltd.). Then, 5 μl of ATP/substrate/metal solution of QuickScout Screening Assist MSA was added. Furthermore, 10 μl of a kinase solution diluted with assay buffer was added and the reaction was initiated. However, only assay buffer (10 μl) was added to blank. The concentration of kinase and reaction conditions were controlled in accordance with the protocol of QuickScout Screening Assist MSA. Then, the reaction was terminated by adding 60 μl of termination buffer of QuickScout Screening Assist MSA and the amount of a substrate (S) and a phosphorylated substrate (P) in the reaction solution were determined in accordance with the protocol of QuickScout Screening Assist MSA using LabChip3000 (manufactured by Caliper Life Sciences Co., MA, USA), and also inhibition of the test compound at a concentration of 0.01, 0.1 and 1 μM was measured, respectively. The amounts of S and P were expressed by the height of each separated peak. Inhibition (%) of the test compound was calculated in accordance with the following equation:
(§6) Inhibition (%)=(1−(C−A)/(B−A))×100
(§7) where A denotes blank, B denotes a solvent and C denotes P/(P+S) of a well of the compound.
Take `Cc1cccc2cnc(Nc3ccc4c(c3)NC(=O)CO4)nc12` [Example 8, 6-(8-methylquinazolin-2-ylamino)-2H-benzo[b][1,4]oxazin-3(4H)-one]: the inhibition at 0.01 µM was no less than 50%. For the molecule `Clc1cccc2cnc(Nc3ccc4cn[nH]c4c3)nc12` [Example 32, 8-chloro-N-(1H-indazol-6-yl)quinazoline-2-amine], the inhibition at 0.01 µM is no less than 50%. Take `CC(=O)Nc1cccc(Nc2ncc3cccc(C)c3n2)c1` [Example 11, N-(3-(8-methylquinazolin-2-ylamino)phenyl)acetamide]: the inhibition at 0.01 µM was no less than 50%.

Still in this experiment, the particulars now being: at 0.1 μM; read-out: inhibitory activity against Flt3 kinase.
With `Cc1cccc2cnc(Nc3ccc4c(c3)OCCO4)nc12` [Example 7, N-(2,3-dihydrobenzo[b][1,4]dioxin-6-yl)-8-methylquinazoline-2-amine], the inhibition at 0.1 µM was no less than 50%. `Cc1cccc2cnc(Nc3ccc4c(c3)OCO4)nc12` [Example 6, N-(benzo[d][1,3]dioxol-5-yl)-8-methylquinazoline-2-amine]: the inhibition at 0.1 µM is no less than 50%.

The target of the next experiment is T2, Syk kinase (Homo sapiens, UniProt P43405).
T2 construct: purchased Carna Biosciences Inc. (Kobe) 08-176
Description: Kinase activity, mobility shift assay (MSA), Syk. Type of experiment: biochemical. Particulars: read-out: inhibitory activity against Syk kinase. The procedure: as §1, §2, §3, §4, §5, §6, §7
For the molecule `Cc1c(NCCO)ccc2cnc(Nc3cc(N)c4cn[nH]c4c3)nc12` [Example 124], the inhibition at 0.1 µM was no less than 50%.

On to `COc1ccc2cnc(Nc3cc(C)c4cn[nH]c4c3)nc2c1C` [Example 97, N-(4-methyl-1H-indazol-6-yl)-7-methoxy-8-methylquinazoline-2-amine], for which the inhibition at 0.1 µM is no less than 50%. On to `Cc1cccc2cnc(Nc3cc(N)c4cn[nH]c4c3)nc12` [Example 52, 8-methyl-N-(4-amino-1H-indazol-6-yl)quinazoline-2-amine], for which the inhibition at 0.1 µM was no less than 50%. On the same count and under the same terms, with `Cc1c(N2CCC(CO)CC2)ccc2cnc(Nc3ccc4cn[nH]c4c3)nc12` [Example 84, {1-[2-(1H-indazol-6-ylamino)-8-methylquinazolin-7-yl]piperidin-4-yl}methanol] the figure was no less than 50%; with `Cc1ccc(Nc2ncc3cccc(C)c3n2)cc1O` [Example 29, 5-(8-methylquinazolin-2-ylamino)-2-methylphenol], no less than 50%; with `Cc1c(N2CCC(CO)CC2)ccc2cnc(Nc3cc(N)c4cn[nH]c4c3)nc12` [Example 101, {1-[2-(4-amino-1H-indazol-6-ylamino)-8-methylquinazolin-7-yl]piperidin-4-yl}methanol], no less than 50%. Same read-out and setting: as for `Cc1c(F)ccc2cnc(Nc3cc(N)c4cn[nH]c4c3)nc12` [Example 99, 7-fluoro-N-(4-amino-1H-indazol-6-yl)-8-methylquinazoline-2-amine], the figure is no less than 50%; as for `Cc1cccc2cnc(Nc3ccc4[nH]nnc4c3)nc12` [Example 2, N-(1H-benzo[d][1,2,3]triazol-5-yl)-8-methylquinazoline-2-amine], no less than 50%. As to `Cc1c(O)ccc2cnc(Nc3ccc4cn[nH]c4c3)nc12` [Example 48, 7-hydroxy-N-(1H-indazol-6-yl)-8-methylquinazoline-2-amine], the inhibition at 0.1 µM is no less than 50%. Same read-out and setting: with `COc1ccc2cnc(Nc3ccc4c(C)n[nH]c4c3)nc2c1C` [Example 96, N-(3-methyl-1H-indazol-6-yl)-7-methoxy-8-methylquinazoline-2-amine] the figure was no less than 50%; with `Cc1n[nH]c2cc(Nc3ncc4cccc(C)c4n3)ccc12` [Example 34, 8-methyl-N-(3-methyl-1H-indazol-6-yl)-quinazoline-2-amine], no less than 50%. On the same count and under the same terms, with `Cc1c(F)ccc2cnc(Nc3cc(N)c4nc[nH]c4c3)nc12` [Example 123, 7-fluoro-8-methyl-N-(4-amino-1H-benzo[d]imidazol-6-yl)quinazoline-2-amine] the figure was no less than 50%; with `Cc1cc(Nc2ncc3cccc(C)c3n2)cc2[nH]ncc12` [Example 37, 8-methyl-N-(4-methyl-1H-indazol-6-yl)-quinazoline-2-amine], no less than 50%; with `Cc1c(N)ccc2cnc(Nc3ccc4cn[nH]c4c3)nc12` [Example 74, 7-amino-N-(1H-indazol-6-yl)-8-methylquinazoline-2-amine], no less than 50%. Still for that read-out and setting: as for `Cc1cc(Nc2ncc3ccc(NCCO)c(C)c3n2)cc2[nH]ncc12` [Example 109, 2-[2-(4-methyl-1H-indazol-6-ylamino)-8-methylquinazolin-7-ylamino]ethanol], the figure is no less than 50%.

Consider `Cc1n[nH]c2cc(Nc3ncc4ccc(N5CCC(CO)CC5)c(C)c4n3)ccc12` [Example 94, {1-[2-(3-methyl-1H-indazol-6-ylamino)-8-methylquinazolin-7-yl]piperidin-4-yl}methanol], for which the inhibition at 0.1 µM is no less than 50%. Still for that read-out and setting: as for `Cc1cccc2cnc(Nc3cc(NC(=O)NCCO)c4cn[nH]c4c3)nc12` [Example 98, 1-(2-hydroxyethyl)-3-[6-(8-methylquinazolin-2-ylamino)-1H-indazol-4-yl]urea], the figure is no less than 50%; as for `Cc1c(NCCO)ccc2cnc(Nc3ccc4cn[nH]c4c3)nc12` [Example 73, 2-[2-(1H-indazol-6-ylamino)-8-methylquinazolin-7-ylamino]ethanol], no less than 50%; as for `COc1ccc2cnc(Nc3cc(N)c4cn[nH]c4c3)nc2c1C` [Example 102, N-(4-amino-1H-indazol-6-yl)-7-methoxy-8-methylquinazoline-2-amine], no less than 50%. Still for that read-out and setting: with `Cc1cccc2cnc(Nc3ccc4cn[nH]c4c3)nc12` [Example 1, N-(1H-indazol-6-yl)-8-methylquinazoline-2-amine] the figure was no less than 50%.

The test system of another experiment is Rat basophilic cells RBL-2H3. Description: Action against IgE-induced degranulation (β-hexosaminidase release). The class given is cell-based. Particulars: RBL-2H3 cells, anti-DNP-IgE / DNP-BSA, read-out: inhibitory activity against IgE-induced degranulation. Here is the method: An inhibitory action against SYK was evaluated by an inhibitory action against degranulation of basophils induced by IgE. Rat basophilic cells RBL-2H3 were incubated with an anti-DNP-IgE antibody (1 μg/mL, Zymed) overnight. After washing cells twice with HBSS, an antigen DNP-BSA (1 μg/mL, LSL) was added, followed by incubation for 30 minutes. The supernatant was taken and an activity of β-hexosaminidase in the solution isolated by degranulation was measured using p-nitrophenyl-N-β-D-glucosaminide as a substrate. Using an absorbance meter (Spectra MAX Pro, Molecular Devices), each absorbance at 405 nm and 570 nm of the solution was measured and an increase in the amount was taken as an enzyme activity. 10 minutes before the addition of an antigen, a test material and a solvent (0.1% DMSO) were added to cells. Inhibition rate (%) against degranulation was calculated by the following equation.
Inhibition rate (%)=(1−(A−C)/(B−C))×100
where A denotes an increase in absorbance of a test material group, B denotes an increase in absorbance of a solvent group, and C denotes an increase in absorbance of a solvent group which is not stimulated by an antigen.
As for `CCNC(=O)n1ncc2c(N)cc(Nc3ncc4cccc(C)c4n3)cc21` [Example 79, 4-amino-N-ethyl-6-(8-methylquinazolin-2-ylamino)-1H-indazole-1-carboxamide], the inhibition at 0.05 µM was no less than 50%.
